According to paper PMC6199309, “A therapeutic approach to pantothenate kinase associated neurodegeneration” (Nature Communications, 2018):

What was measured:
Experiment in all cases: KINOMEscan
Assay type in all cases: binding
Conditions in all cases: read-out: %Ctrl @ 10000nM
[1] = target: T1, ABL1(Q252H)-phosphorylated (Homo sapiens, UniProt P00519, Q252H)
T1 construct: purchased DiscoverX KINOMEscan

[2] = target: T2, NEK4 (Homo sapiens, UniProt P51957)
T2 construct: purchased DiscoverX KINOMEscan

[3] = target: T3, ERK4 (Homo sapiens, UniProt P31152)
T3 construct: purchased DiscoverX KINOMEscan

[4] = target: T4, WEE1 (Homo sapiens, UniProt P30291)
T4 construct: DNA label for qPCR (T7 phage fusion or DNA tag); purchased DiscoverX scanMAX; host or cells: E. coli BL21-derived (T7 phage) or HEK-293

[5] = target: T5, PFPK5(P.falciparum) (Plasmodium falciparum, UniProt P61075)
T5 construct: purchased DiscoverX KINOMEscan

[6] = target: T6, LIMK1 (Homo sapiens, UniProt P53667)
T6 construct: purchased DiscoverX KINOMEscan
T6 sequence (P53667 whole entry): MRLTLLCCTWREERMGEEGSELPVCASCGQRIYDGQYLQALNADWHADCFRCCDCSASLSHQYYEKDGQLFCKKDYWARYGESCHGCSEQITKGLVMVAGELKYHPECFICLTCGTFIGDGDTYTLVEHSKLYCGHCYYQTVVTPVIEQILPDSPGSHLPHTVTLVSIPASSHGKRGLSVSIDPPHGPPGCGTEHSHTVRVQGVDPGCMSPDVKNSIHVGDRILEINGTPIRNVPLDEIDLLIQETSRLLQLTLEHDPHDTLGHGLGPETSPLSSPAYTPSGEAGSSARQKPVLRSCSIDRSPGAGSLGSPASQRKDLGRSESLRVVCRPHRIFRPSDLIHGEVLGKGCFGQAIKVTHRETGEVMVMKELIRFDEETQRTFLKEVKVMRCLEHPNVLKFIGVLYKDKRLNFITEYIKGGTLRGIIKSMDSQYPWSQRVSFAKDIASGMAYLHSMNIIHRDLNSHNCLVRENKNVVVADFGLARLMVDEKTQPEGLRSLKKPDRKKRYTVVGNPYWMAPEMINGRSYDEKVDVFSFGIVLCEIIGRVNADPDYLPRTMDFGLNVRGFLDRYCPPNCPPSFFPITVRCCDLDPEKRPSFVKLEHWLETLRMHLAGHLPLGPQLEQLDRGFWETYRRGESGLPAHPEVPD

[7] = target: T7, MET(M1250T) (Homo sapiens, UniProt P08581, M1250T)
T7 construct: purchased DiscoverX KINOMEscan

[8] = target: T8, LATS2 (Homo sapiens, UniProt Q9NRM7)
T8 construct: purchased DiscoverX KINOMEscan
T8 sequence (Q9NRM7 whole entry): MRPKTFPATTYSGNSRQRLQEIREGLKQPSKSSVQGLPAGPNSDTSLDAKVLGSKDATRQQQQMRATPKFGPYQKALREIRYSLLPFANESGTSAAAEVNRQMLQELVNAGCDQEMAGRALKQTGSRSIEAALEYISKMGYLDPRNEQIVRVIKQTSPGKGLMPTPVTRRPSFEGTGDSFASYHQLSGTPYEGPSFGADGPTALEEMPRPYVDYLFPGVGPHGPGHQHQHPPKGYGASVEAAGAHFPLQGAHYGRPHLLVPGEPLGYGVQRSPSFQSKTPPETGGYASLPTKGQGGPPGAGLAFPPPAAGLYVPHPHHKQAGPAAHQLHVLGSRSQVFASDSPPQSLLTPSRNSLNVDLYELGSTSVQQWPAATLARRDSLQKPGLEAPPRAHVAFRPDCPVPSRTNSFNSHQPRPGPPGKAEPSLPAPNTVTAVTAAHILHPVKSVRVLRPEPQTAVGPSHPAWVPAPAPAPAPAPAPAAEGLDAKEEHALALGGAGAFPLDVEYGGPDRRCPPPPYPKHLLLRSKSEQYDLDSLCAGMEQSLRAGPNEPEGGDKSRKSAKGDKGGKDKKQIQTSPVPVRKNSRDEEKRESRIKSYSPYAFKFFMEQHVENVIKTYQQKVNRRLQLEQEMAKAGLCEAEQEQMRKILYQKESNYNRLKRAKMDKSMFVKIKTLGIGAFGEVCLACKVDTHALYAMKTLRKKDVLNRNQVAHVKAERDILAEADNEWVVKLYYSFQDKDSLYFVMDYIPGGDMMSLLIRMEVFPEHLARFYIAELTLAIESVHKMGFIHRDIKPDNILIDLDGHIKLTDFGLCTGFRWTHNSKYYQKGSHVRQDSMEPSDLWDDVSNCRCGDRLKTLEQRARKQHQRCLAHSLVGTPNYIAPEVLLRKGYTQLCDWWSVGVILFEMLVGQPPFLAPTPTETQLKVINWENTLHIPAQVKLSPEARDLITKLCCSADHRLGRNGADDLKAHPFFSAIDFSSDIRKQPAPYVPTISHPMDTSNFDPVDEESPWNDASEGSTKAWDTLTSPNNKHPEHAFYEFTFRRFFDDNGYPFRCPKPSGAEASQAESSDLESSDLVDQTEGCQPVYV

[9] = target: T9, PIP5K1C (Homo sapiens, UniProt O60331)
T9 construct: purchased DiscoverX KINOMEscan

[10] = target: T10, PLK2 (Homo sapiens, UniProt Q9NYY3)
T10 construct: purchased DiscoverX KINOMEscan

[11] = target: T11, ROCK2 (Homo sapiens, UniProt O75116)
T11 construct: purchased DiscoverX KINOMEscan

[12] = target: T12, GSK3A (Homo sapiens, UniProt P49840)
T12 construct: purchased DiscoverX KINOMEscan

[13] = target: T13, PCTK2 (Homo sapiens, UniProt Q00537)
T13 construct: purchased DiscoverX KINOMEscan

[14] = target: T14, ASK2 (Homo sapiens, UniProt O95382)
T14 construct: purchased DiscoverX KINOMEscan

[15] = target: T15, STK39 (Homo sapiens, UniProt Q9UEW8)
T15 construct: purchased DiscoverX KINOMEscan

[16] = target: T16, BIKE (Homo sapiens, UniProt Q9NSY1)
T16 construct: purchased DiscoverX KINOMEscan

[17] = target: T17, SGK (Homo sapiens, UniProt O00141)
T17 construct: purchased DiscoverX KINOMEscan

[18] = target: T18, MKNK2 (Homo sapiens, UniProt Q9HBH9)
T18 construct: purchased DiscoverX KINOMEscan

[19] = target: T19, PIK4CB (Homo sapiens, UniProt Q9UBF8)
T19 construct: purchased DiscoverX KINOMEscan

[20] = target: T20, EPHB6 (Homo sapiens, UniProt O15197)
T20 construct: purchased DiscoverX KINOMEscan

[21] = target: T21, PIK3CG (Homo sapiens, UniProt P48736)
T21 construct: purchased DiscoverX KINOMEscan

[22] = target: T22, TRKC (Homo sapiens, UniProt Q16288)
T22 construct: purchased DiscoverX KINOMEscan

[23] = target: T23, BLK (Homo sapiens, UniProt P51451)
T23 construct: purchased DiscoverX KINOMEscan

[24] = target: T24, CASK (Homo sapiens, UniProt O14936)
T24 construct: purchased DiscoverX KINOMEscan
T24 sequence (O14936 whole entry): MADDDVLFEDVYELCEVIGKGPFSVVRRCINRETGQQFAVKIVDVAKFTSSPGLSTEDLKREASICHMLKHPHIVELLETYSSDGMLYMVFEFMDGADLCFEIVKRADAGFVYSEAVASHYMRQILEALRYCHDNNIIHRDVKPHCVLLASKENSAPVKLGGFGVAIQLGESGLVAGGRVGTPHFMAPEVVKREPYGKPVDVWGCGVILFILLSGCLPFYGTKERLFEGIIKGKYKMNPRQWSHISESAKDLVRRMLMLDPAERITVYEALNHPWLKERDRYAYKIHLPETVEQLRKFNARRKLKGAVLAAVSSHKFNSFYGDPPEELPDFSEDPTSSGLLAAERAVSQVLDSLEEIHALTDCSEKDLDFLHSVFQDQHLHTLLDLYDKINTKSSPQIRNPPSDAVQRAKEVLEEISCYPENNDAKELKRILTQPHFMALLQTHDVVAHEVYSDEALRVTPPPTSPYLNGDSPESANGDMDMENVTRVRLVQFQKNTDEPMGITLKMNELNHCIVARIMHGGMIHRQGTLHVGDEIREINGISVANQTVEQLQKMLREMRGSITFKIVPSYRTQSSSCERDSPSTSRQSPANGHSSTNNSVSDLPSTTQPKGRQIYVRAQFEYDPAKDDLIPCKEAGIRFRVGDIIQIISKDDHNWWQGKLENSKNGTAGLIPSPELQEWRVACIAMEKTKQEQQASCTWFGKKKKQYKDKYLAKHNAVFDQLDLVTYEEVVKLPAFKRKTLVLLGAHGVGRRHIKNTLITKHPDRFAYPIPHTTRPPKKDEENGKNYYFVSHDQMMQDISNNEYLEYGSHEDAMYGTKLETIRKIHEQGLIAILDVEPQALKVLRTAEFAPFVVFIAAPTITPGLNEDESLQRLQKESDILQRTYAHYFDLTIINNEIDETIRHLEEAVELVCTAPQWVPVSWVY

[25] = target: T25, HIPK3 (Homo sapiens, UniProt Q9H422)
T25 construct: purchased DiscoverX KINOMEscan

[26] = target: T26, AKT2 (Homo sapiens, UniProt P31751)
T26 construct: purchased DiscoverX KINOMEscan

[27] = target: T27, SYK (Homo sapiens, UniProt P43405)
T27 construct: purchased DiscoverX KINOMEscan

[28] = target: T28, SLK (Homo sapiens, UniProt Q9H2G2)
T28 construct: purchased DiscoverX KINOMEscan

[29] = target: T29, EPHA5 (Homo sapiens, UniProt P54756)
T29 construct: purchased DiscoverX KINOMEscan

[30] = target: T30, PIM3 (Homo sapiens, UniProt Q86V86)
T30 construct: purchased DiscoverX KINOMEscan

[31] = target: T31, CAMKK2 (Homo sapiens, UniProt Q96RR4)
T31 construct: purchased DiscoverX KINOMEscan

[32] = target: T32, FLT4 (Homo sapiens, UniProt P35916)
T32 construct: purchased DiscoverX KINOMEscan

[33] = target: T33, DRAK1 (Homo sapiens, UniProt Q9UEE5)
T33 construct: purchased DiscoverX KINOMEscan

[34] = target: T34, TRKB (Homo sapiens, UniProt Q16620)
T34 construct: purchased DiscoverX KINOMEscan

[35] = target: T35, AXL (Homo sapiens, UniProt P30530)
T35 construct: purchased DiscoverX KINOMEscan

[36] = target: T36, NIK (Homo sapiens, UniProt Q99558)
T36 construct: purchased DiscoverX KINOMEscan

[37] = target: T37, CDK4 (Homo sapiens, UniProt P11802)
T37 construct: purchased DiscoverX KINOMEscan
T37 sequence (P11802 whole entry): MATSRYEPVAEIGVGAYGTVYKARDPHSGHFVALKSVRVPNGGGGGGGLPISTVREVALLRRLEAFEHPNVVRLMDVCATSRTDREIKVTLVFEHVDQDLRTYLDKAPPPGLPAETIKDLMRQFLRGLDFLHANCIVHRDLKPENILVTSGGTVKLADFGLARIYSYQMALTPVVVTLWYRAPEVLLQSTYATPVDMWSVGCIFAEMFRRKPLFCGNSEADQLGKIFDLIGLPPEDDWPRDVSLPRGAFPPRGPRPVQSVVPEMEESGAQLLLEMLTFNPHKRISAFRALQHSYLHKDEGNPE

[38] = target: T38, LKB1 (Homo sapiens, UniProt Q15831)
T38 construct: purchased DiscoverX KINOMEscan
T38 sequence (Q15831 whole entry): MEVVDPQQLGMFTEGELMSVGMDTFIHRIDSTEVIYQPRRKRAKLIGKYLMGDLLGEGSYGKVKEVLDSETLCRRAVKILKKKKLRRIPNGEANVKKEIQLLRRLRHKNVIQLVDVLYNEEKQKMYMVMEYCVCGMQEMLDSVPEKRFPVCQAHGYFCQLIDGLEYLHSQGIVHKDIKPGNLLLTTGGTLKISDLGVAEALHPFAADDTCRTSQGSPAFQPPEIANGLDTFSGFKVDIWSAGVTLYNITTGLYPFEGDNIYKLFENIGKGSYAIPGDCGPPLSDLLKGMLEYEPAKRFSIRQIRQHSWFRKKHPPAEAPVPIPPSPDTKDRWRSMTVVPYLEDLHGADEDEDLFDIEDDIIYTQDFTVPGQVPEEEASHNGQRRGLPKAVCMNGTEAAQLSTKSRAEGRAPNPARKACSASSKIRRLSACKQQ

[39] = target: T39, ABL1(F317L)-phosphorylated (Homo sapiens, UniProt P00519, F317L)
T39 construct: purchased DiscoverX KINOMEscan

[40] = target: T40, CIT (Homo sapiens, UniProt O14578)
T40 construct: purchased DiscoverX KINOMEscan

[41] = target: T41, LOK (Homo sapiens, UniProt O94804)
T41 construct: purchased DiscoverX KINOMEscan

[42] = target: T42, KIT(D816H) (Homo sapiens, UniProt P10721, D816H)
T42 construct: purchased DiscoverX KINOMEscan
T42 sequence (P10721 26-976 D816H): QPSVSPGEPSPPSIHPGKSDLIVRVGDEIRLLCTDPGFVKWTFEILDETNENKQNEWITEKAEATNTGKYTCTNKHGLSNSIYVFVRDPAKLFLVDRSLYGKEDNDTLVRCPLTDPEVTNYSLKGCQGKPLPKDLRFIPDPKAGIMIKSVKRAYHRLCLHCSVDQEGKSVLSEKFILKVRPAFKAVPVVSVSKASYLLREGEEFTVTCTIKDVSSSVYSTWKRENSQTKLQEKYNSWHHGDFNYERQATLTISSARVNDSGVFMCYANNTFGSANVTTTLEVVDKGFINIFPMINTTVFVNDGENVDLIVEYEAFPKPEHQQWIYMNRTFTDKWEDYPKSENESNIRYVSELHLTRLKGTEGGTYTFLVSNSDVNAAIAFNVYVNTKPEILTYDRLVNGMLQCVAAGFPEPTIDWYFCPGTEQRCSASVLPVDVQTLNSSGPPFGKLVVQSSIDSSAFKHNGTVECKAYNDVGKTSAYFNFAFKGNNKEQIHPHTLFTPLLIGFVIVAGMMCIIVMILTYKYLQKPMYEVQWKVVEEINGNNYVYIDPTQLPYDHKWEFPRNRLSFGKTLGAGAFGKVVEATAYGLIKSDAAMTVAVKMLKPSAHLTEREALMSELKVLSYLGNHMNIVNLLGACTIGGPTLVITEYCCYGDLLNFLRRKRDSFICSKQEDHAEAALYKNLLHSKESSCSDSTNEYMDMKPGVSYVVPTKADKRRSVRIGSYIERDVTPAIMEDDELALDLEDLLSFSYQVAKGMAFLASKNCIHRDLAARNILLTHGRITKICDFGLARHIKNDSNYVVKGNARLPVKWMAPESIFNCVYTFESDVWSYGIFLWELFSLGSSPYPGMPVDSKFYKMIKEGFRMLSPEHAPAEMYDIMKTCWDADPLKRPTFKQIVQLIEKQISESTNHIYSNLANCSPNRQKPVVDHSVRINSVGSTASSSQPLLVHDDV

[43] = target: T43, p38-beta (Homo sapiens, UniProt Q15759)
T43 construct: purchased DiscoverX KINOMEscan
T43 sequence (Q15759 whole entry): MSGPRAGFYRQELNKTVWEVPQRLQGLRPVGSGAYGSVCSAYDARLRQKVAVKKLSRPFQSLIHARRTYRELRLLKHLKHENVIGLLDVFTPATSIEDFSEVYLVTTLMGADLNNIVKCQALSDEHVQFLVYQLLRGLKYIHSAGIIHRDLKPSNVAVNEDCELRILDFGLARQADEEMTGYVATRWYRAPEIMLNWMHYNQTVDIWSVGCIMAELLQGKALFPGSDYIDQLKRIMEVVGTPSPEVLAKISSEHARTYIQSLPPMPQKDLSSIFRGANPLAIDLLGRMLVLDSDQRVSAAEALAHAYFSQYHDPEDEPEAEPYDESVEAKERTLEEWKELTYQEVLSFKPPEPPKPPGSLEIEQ

**Q.** With CC(C)c1ccc(CC(=O)N2CCN(c3ccc(C#N)nn3)CC2)cc1 [PZ-2891, 6-(4-(2-(4-isopropylphenyl)acetyl)piperazin-1-yl)pyridazine-3-carbonitrile] as the compound, how does the remaining binding at 10 µM [1] read?
**A.** 74%

**Q.** What about the remaining binding at 10 µM [2] of the same compound?
**A.** 95%

**Q.** What about the remaining binding at 10 µM [3] of the same compound?
**A.** 97%

**Q.** And the remaining binding at 10 µM [4]?
**A.** 92%

**Q.** What about the remaining binding at 10 µM [5] of the same compound?
**A.** 99%

**Q.** What about the remaining binding at 10 µM [6] of the same compound?
**A.** 87%

**Q.** And the remaining binding at 10 µM [7]?
**A.** 98%

**Q.** And the remaining binding at 10 µM [8]?
**A.** 82%

**Q.** What about the remaining binding at 10 µM [9] of the same compound?
**A.** 100%

**Q.** And the remaining binding at 10 µM [10]?
**A.** 84%

**Q.** And the remaining binding at 10 µM [11]?
**A.** 100%

**Q.** And the remaining binding at 10 µM [12]?
**A.** 83%

**Q.** And the remaining binding at 10 µM [13]?
**A.** 95%

**Q.** And the remaining binding at 10 µM [14]?
**A.** 83%

**Q.** What about the remaining binding at 10 µM [15] of the same compound?
**A.** 70%

**Q.** And the remaining binding at 10 µM [16]?
**A.** 100%

**Q.** And the remaining binding at 10 µM [17]?
**A.** 61%

**Q.** And the remaining binding at 10 µM [18]?
**A.** 79%

**Q.** And the remaining binding at 10 µM [19]?
**A.** 84%

**Q.** What about the remaining binding at 10 µM [20] of the same compound?
**A.** 68%

**Q.** And the remaining binding at 10 µM [21]?
**A.** 96%

**Q.** What about the remaining binding at 10 µM [22] of the same compound?
**A.** 100%

**Q.** And the remaining binding at 10 µM [23]?
**A.** 87%

**Q.** What about the remaining binding at 10 µM [24] of the same compound?
**A.** 85%

**Q.** And the remaining binding at 10 µM [25]?
**A.** 81%

**Q.** What about the remaining binding at 10 µM [26] of the same compound?
**A.** 85%

**Q.** What about the remaining binding at 10 µM [27] of the same compound?
**A.** 82%

**Q.** What about the remaining binding at 10 µM [28] of the same compound?
**A.** 93%

**Q.** And the remaining binding at 10 µM [29]?
**A.** 88%

**Q.** What about the remaining binding at 10 µM [30] of the same compound?
**A.** 58%

**Q.** What about the remaining binding at 10 µM [31] of the same compound?
**A.** 87%

**Q.** What about the remaining binding at 10 µM [32] of the same compound?
**A.** 91%

**Q.** What about the remaining binding at 10 µM [33] of the same compound?
**A.** 99%

**Q.** And the remaining binding at 10 µM [34]?
**A.** 100%

**Q.** And the remaining binding at 10 µM [35]?
**A.** 73%

**Q.** What about the remaining binding at 10 µM [36] of the same compound?
**A.** 100%

**Q.** And the remaining binding at 10 µM [37]?
**A.** 99%

**Q.** What about the remaining binding at 10 µM [38] of the same compound?
**A.** 93%

**Q.** What about the remaining binding at 10 µM [39] of the same compound?
**A.** 100%

**Q.** And the remaining binding at 10 µM [40]?
**A.** 97%

**Q.** What about the remaining binding at 10 µM [41] of the same compound?
**A.** 86%

**Q.** And the remaining binding at 10 µM [42]?
**A.** 66%

**Q.** And the remaining binding at 10 µM [43]?
**A.** 96%
